Test results published in patent US10167262B2, “Herbicidal substituted 3-arylpyrazoles” (FMC CORPORATION, priority 2014, dated 2019).

Key:
Assay type in all cases: in vivo
[1] = tested on: yellow nutsedge (Cyperus esculentus); experiment: Test C pre-/postemergence greenhouse test, plant response rating 0-100
Outline: (§1)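 Visual rating vs controls after 13–15 d greenhouse; 0 = no effect, 100 = complete control. Pre: seeds in loam/sand, treated at planting. Post: seedlings 2–18 cm (1–4 leaf) in peat-based mix. Compounds in surfactant-containing non-phytotoxic solvent.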

[2] = tested on: ragweed (common ragweed, Ambrosia elatior); experiment: as above
Outline: as §1

[3] = tested on: Italian ryegrass (Lolium multiflorum); experiment: as above
Outline: as §1

[4] = tested on: galium (catchweed bedstraw, Galium aparine); experiment: as above
Outline: as §1

[5] = tested on: large (Lg) crabgrass (Digitaria sanguinalis); experiment: as above
Outline: as §1

[6] = tested on: wheat (Triticum aestivum); experiment: Test A pre-/postemergence greenhouse herbicide test, visual injury rating 0-100
Outline: (§2)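 Visual injury versus untreated controls, scored about 10 days after treatment on a 0 to 100 scale (0 = no effect, 100 = complete control). Applications were preemergence directed soil spray plus postemergence spray at one- to two-leaf stage, 2 to 10 cm plants.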

corn (Zea mays) = experiment: as above
Outline: as §2

[7] = tested on: morningglory (Ipomoea spp.); experiment: as above
Outline: as §2

[8] = tested on: barnyardgrass (Echinochloa crus-galli); experiment: as above
Outline: as §2

[9] = tested on: large (Lg) crabgrass (Digitaria sanguinalis); experiment: as above
Outline: as §2

[10] = tested on: velvetleaf (Abutilon theophrasti); experiment: as above
Outline: as §2

[11] = tested on: pigweed (Amaranthus retroflexus); experiment: as above
Outline: as §2

[12] = tested on: giant foxtail (Setaria faberii); experiment: as above
Outline: as §2

[13] = Postemergence, 250 g ai/ha, scale 0 to 100
[14] = Postemergence, 500 g ai/ha, scale 0 to 100

Cn1cc(C(=NN2CCCC2)c2ccccc2)c(-c2cc(Cl)c(Cl)c(Cl)c2)n1 [Compound 25]
Plant response rating (0 to 100), Nutsedge, Yellow ([1]; Postemergence, 62 g ai/ha): 0 | Plant response rating (0 to 100), Nutsedge, Yellow ([1]; Postemergence, 125 g ai/ha): 0 | Plant response rating, Nutsedge, Yellow [1, 13]: 0 | Plant response rating (0 to 100), Ragweed ([2]; Postemergence, 62 g ai/ha): 0 | Plant response rating (0 to 100), Ragweed ([2]; Postemergence, 125 g ai/ha): 0 | Plant response rating, Ragweed [2, 13]: 0 | Plant response rating (0 to 100), Ryegrass, Italian ([3]; Postemergence, 62 g ai/ha): 0 | Plant response rating (0 to 100), Ryegrass, Italian ([3]; Postemergence, 125 g ai/ha): 0 | Plant response rating, Ryegrass, Italian [3, 13]: 5 | Plant response rating (0 to 100), Galium ([4]; Postemergence, 31 g ai/ha): 0 | Plant response rating (0 to 100), Galium ([4]; Postemergence, 62 g ai/ha): 0 | Plant response rating (0 to 100), Galium ([4]; Postemergence, 125 g ai/ha): 0 | Plant response rating, Galium [4, 13]: 0 | Plant response rating (0 to 100), Crabgrass, Large ([5]; Postemergence, 31 g ai/ha): 0 | Plant response rating (0 to 100), Crabgrass, Large ([5]; Postemergence, 62 g ai/ha): 0 | Plant response rating (0 to 100), Crabgrass, Large ([5]; Postemergence, 125 g ai/ha): 0 | Plant response rating, Crabgrass, Large [5, 13]: 0 | Plant response rating (0 to 100 scale), Wheat ([6]; Postemergence, 1000 g ai/ha): 0 | Plant response rating (0 to 100 scale), Wheat ([6]; Preemergence, 1000 g ai/ha): 0 | Plant response rating (0 to 100 scale), Corn (corn (Zea mays); Postemergence, 1000 g ai/ha): 0 | Plant response rating (0 to 100 scale), Corn (corn (Zea mays); Preemergence, 1000 g ai/ha): 0 | Plant response rating (0 to 100 scale), Morningglory ([7]; Postemergence, 1000 g ai/ha): 0 | Plant response rating (0 to 100 scale), Morningglory ([7]; Preemergence, 1000 g ai/ha): 0 | Plant response rating (0 to 100 scale), Barnyardgrass ([8]; Postemergence, 1000 g ai/ha): 0 | Plant response rating (0 to 100 scale), Barnyardgrass ([8]; Preemergence, 1000 g ai/ha): 0 | Plant response rating (0 to 100 scale), Crabgrass, Large ([9]; Postemergence, 1000 g ai/ha): 0 | Plant response rating (0 to 100 scale), Crabgrass, Large ([9]; Preemergence, 1000 g ai/ha): 0 | Plant response rating (0 to 100 scale), Velvetleaf ([10]; Postemergence, 1000 g ai/ha): 80 | Plant response rating (0 to 100 scale), Velvetleaf ([10]; Preemergence, 1000 g ai/ha): 20 | Plant response rating (0 to 100 scale), Pigweed ([11]; Postemergence, 1000 g ai/ha): 90 | Plant response rating (0 to 100 scale), Pigweed ([11]; Preemergence, 1000 g ai/ha): 90 | Plant response rating (0 to 100 scale), Foxtail, Giant ([12]; Postemergence, 1000 g ai/ha): 0 | Plant response rating (0 to 100 scale), Foxtail, Giant ([12]; Preemergence, 1000 g ai/ha): 0

CCOC(OCC)(c1cccs1)c1c[nH]nc1-c1cc(Cl)cc(Cl)c1 [Compound 27]
Plant response rating (0 to 100), Nutsedge, Yellow ([1]; Postemergence, 62 g ai/ha): 0 | Plant response rating (0 to 100), Nutsedge, Yellow ([1]; Postemergence, 125 g ai/ha): 0 | Plant response rating, Nutsedge, Yellow [1, 13]: 0 | Plant response rating, Nutsedge, Yellow [1, 14]: 0 | Plant response rating, Nutsedge, Yellow ([1]; Preemergence, 62 g ai/ha): 0 | Plant response rating, Nutsedge, Yellow ([1]; Preemergence, 125 g ai/ha): 0 | Plant response rating, Nutsedge, Yellow ([1]; Preemergence, 250 g ai/ha): 0 | Plant response rating, Nutsedge, Yellow ([1]; Preemergence, 500 g ai/ha): 0 | Plant response rating (0 to 100), Ragweed ([2]; Postemergence, 62 g ai/ha): 65 | Plant response rating (0 to 100), Ragweed ([2]; Postemergence, 125 g ai/ha): 75 | Plant response rating, Ragweed [2, 13]: 90 | Plant response rating, Ragweed [2, 14]: 75 | Plant response rating, Ragweed ([2]; Preemergence, 62 g ai/ha): 98 | Plant response rating, Ragweed ([2]; Preemergence, 125 g ai/ha): 70 | Plant response rating, Ragweed ([2]; Preemergence, 250 g ai/ha): 70 | Plant response rating, Ragweed ([2]; Preemergence, 500 g ai/ha): 100 | Plant response rating (0 to 100), Ryegrass, Italian ([3]; Postemergence, 62 g ai/ha): 5 | Plant response rating (0 to 100), Ryegrass, Italian ([3]; Postemergence, 125 g ai/ha): 0 | Plant response rating, Ryegrass, Italian [3, 13]: 5 | Plant response rating, Ryegrass, Italian [3, 14]: 5 | Plant response rating, Ryegrass, Italian ([3]; Preemergence, 62 g ai/ha): 0 | Plant response rating, Ryegrass, Italian ([3]; Preemergence, 125 g ai/ha): 0 | Plant response rating, Ryegrass, Italian ([3]; Preemergence, 250 g ai/ha): 0 | Plant response rating, Ryegrass, Italian ([3]; Preemergence, 500 g ai/ha): 0 | Plant response rating (0 to 100), Galium ([4]; Postemergence, 62 g ai/ha): 0 | Plant response rating (0 to 100), Galium ([4]; Postemergence, 125 g ai/ha): 0 | Plant response rating, Galium [4, 13]: 0 | Plant response rating, Galium [4, 14]: 0 | Plant response rating, Galium ([4]; Preemergence, 62 g ai/ha): 0 | Plant response rating, Galium ([4]; Preemergence, 125 g ai/ha): 50 | Plant response rating, Galium ([4]; Preemergence, 250 g ai/ha): 80 | Plant response rating, Galium ([4]; Preemergence, 500 g ai/ha): 30 | Plant response rating (0 to 100), Crabgrass, Large ([5]; Postemergence, 62 g ai/ha): 0 | Plant response rating (0 to 100), Crabgrass, Large ([5]; Postemergence, 125 g ai/ha): 0 | Plant response rating, Crabgrass, Large [5, 13]: 10 | Plant response rating, Crabgrass, Large [5, 14]: 10 | Plant response rating, Crabgrass, Large ([5]; Preemergence, 62 g ai/ha): 0 | Plant response rating, Crabgrass, Large ([5]; Preemergence, 125 g ai/ha): 0 | Plant response rating, Crabgrass, Large ([5]; Preemergence, 250 g ai/ha): 0 | Plant response rating, Crabgrass, Large ([5]; Preemergence, 500 g ai/ha): 0 | Plant response rating (0 to 100 scale), Wheat ([6]; Postemergence, 125 g ai/ha): 0 | Plant response rating (0 to 100 scale), Wheat ([6]; Postemergence, 500 g ai/ha): 0 | Wheat plant response rating (0 = no effect, 100 = complete control) ([6]; Preemergence, 125 g ai/ha): 0 | Plant response rating (0 to 100 scale), Wheat ([6]; Preemergence, 500 g ai/ha): 0 | Plant response rating (0 to 100 scale), Corn (corn (Zea mays); Postemergence, 125 g ai/ha): 0 | Plant response rating (0 to 100 scale), Corn (corn (Zea mays); Postemergence, 500 g ai/ha): 0 | Corn plant response rating (0 = no effect, 100 = complete control) (corn (Zea mays); Preemergence, 125 g ai/ha): 0 | Plant response rating (0 to 100 scale), Corn (corn (Zea mays); Preemergence, 500 g ai/ha): 0 | Plant response rating (0 to 100 scale), Morningglory ([7]; Postemergence, 125 g ai/ha): 0 | Plant response rating (0 to 100 scale), Morningglory ([7]; Postemergence, 500 g ai/ha): 0 | Morningglory plant response rating (0 = no effect, 100 = complete control) ([7]; Preemergence, 125 g ai/ha): 0 | Plant response rating (0 to 100 scale), Morningglory ([7]; Preemergence, 500 g ai/ha): 0 | Plant response rating (0 to 100 scale), Barnyardgrass ([8]; Postemergence, 125 g ai/ha): 0 | Plant response rating (0 to 100 scale), Barnyardgrass ([8]; Postemergence, 500 g ai/ha): 0 | Barnyardgrass plant response rating (0 = no effect, 100 = complete control) ([8]; Preemergence, 125 g ai/ha): 0 | Plant response rating (0 to 100 scale), Barnyardgrass ([8]; Preemergence, 500 g ai/ha): 0 | Plant response rating (0 to 100 scale), Crabgrass, Large ([9]; Postemergence, 125 g ai/ha): 0 | Plant response rating (0 to 100 scale), Crabgrass, Large ([9]; Postemergence, 500 g ai/ha): 0 | Crabgrass, Large plant response rating (0 = no effect, 100 = complete control) ([9]; Preemergence, 125 g ai/ha): 0 | Plant response rating (0 to 100 scale), Crabgrass, Large ([9]; Preemergence, 500 g ai/ha): 0 | Plant response rating (0 to 100 scale), Velvetleaf ([10]; Postemergence, 125 g ai/ha): 80 | Plant response rating (0 to 100 scale), Velvetleaf ([10]; Postemergence, 500 g ai/ha): 90 | Velvetleaf plant response rating (0 = no effect, 100 = complete control) ([10]; Preemergence, 125 g ai/ha): 80 | Plant response rating (0 to 100 scale), Velvetleaf ([10]; Preemergence, 500 g ai/ha): 80 | Plant response rating (0 to 100 scale), Pigweed ([11]; Postemergence, 125 g ai/ha): 80 | Plant response rating (0 to 100 scale), Pigweed ([11]; Postemergence, 500 g ai/ha): 100 | Pigweed plant response rating (0 = no effect, 100 = complete control) ([11]; Preemergence, 125 g ai/ha): 100 | Plant response rating (0 to 100 scale), Pigweed ([11]; Preemergence, 500 g ai/ha): 100 | Plant response rating (0 to 100 scale), Foxtail, Giant ([12]; Postemergence, 125 g ai/ha): 0 | Plant response rating (0 to 100 scale), Foxtail, Giant ([12]; Postemergence, 500 g ai/ha): 0 | Foxtail, Giant plant response rating (0 = no effect, 100 = complete control) ([12]; Preemergence, 125 g ai/ha): 0 | Plant response rating (0 to 100 scale), Foxtail, Giant ([12]; Preemergence, 500 g ai/ha): 0
